Series [1] concerns human lung cancer cell line NCI-H23. The series is described as follows: NCI-H23 growth inhibition assay. It counts as cell-based. The conditions noted are these: NCI-H23, 72 h, 3 days incubation, CellTiter-Glo. The procedure: (§1) In this assay, the growth inhibitory activities of Compound D-6 (Example 26), E-2, G-4, H-2, 1-2, J-1, K-2, L-6, M-3, and N-1 in a human lung cancer cell line NCI-H23 were measured. NCI-H23 cells were maintained in RPM-1640 (Wako Pure Chemical Industries, Ltd., 187-02021) medium containing 10% fetal bovine serum (FBS: Sigma, 172012), and penicillin and streptomycin (Wako Pure Chemical Industries, Ltd., 168-23191) in a 5% CO2 incubator (37° C.). To each well of a 96 well plate (Becton, Dickinson and Company, 353219), 75 μL of NCI-H23 cell suspension adjusted to a concentration of 4×10^4 cells/mL with the culture medium was added, and the cells were incubated overnight in a 5% CO2 incubator (37° C.). On the next day, 25 μL of each compound in three-fold dilution series suspended in the culture medium was added to each well, and the resultant was incubated for 3 days in a 5% CO2 incubator (37° C.). Then, cell viability was determined by CellTiter-Glo® Luminescent Cell Viability Assay (Promega) with EnVision 2103 Multilabel Reader (Perkin-Elmer, Wellesley, MA). Value of the wells containing cells without adding the test substance was defined as 100% and the value of the wells containing no cells was defined as 0%. The concentration of the test substance necessary for inhibiting the cell growth by 50% (i.e., an IC50 value) was calculated, and summarized in Table 14.
In general terms: Cellular ATP, detected with luciferase, serves as a proxy for viable cell number.

For another series, the system named is MES-SA cells. The series is described as follows: MES-SA growth inhibition assay. Type of series: cell-based. The conditions noted are these: Homo sapiens, 72 h, 3 days incubation, CellTiter-Glo, read-out: Cell growth inhibition IC50 (nM) MES-SA. The procedure: as §1, with “MES-SA” for “NCI-H23”
For series [2], the system named is human breast cancer cell line HCC1954. As to the kind of experiment: HCC1954 growth inhibition assay (Test Example 24). It counts as cell-based. The conditions noted are these: HCC1954, 72 h, 3 days incubation, CellTiter-Glo. Here is the method:
In this assay, the growth inhibitory activities of Compound D-6 (Example 26), E-2, G-4, H-2, I-2, J-1, K-2, L-6, M-3, and N-1 in a human breast cancer cell line HCCl954 were measured. HCC1954 cells were maintained in RPMI-1640 medium modified to contain 2 mM L-glutamine, 10 mM HEPES, 1 mM sodium pyruvate, 4500 mg/L glucose, and 1500 mg/L sodium bicarbonate (ATCC 30-2001) containing 10% fetal bovine serum (FBS: Sigma, 172012), and penicillin and streptomycin (Wako Pure Chemical Industries, Ltd., 168-23191) in a 5% CO2 incubator (37° C.). To each well of a 96 well plate (Becton, Dickinson and Company, 353219), 75 μL of HCC1954 cell suspension adjusted to a concentration of 4×10^4 cells/mL with the culture medium was added, and the cells were incubated overnight in a 5% CO2 incubator (37° C.). On the next day, 25 μL of each compound in three-fold dilution series suspended in the culture medium was added to each well, and the resultant was incubated for 3 days in a 5% CO2 incubator (37° C.). Then, cell viability was determined by CellTiter-Glo® Luminescent Cell Viability Assay (Promega) with EnVision 2103 Multilabel Reader (Perkin-Elmer, Wellesley, MA). Value of the wells containing cells without adding the test substance was defined as 100% and the value of the wells containing no cells was defined as 0%. The concentration of the test substance necessary for inhibiting the cell growth by 50% (i.e., an IC50 value) was calculated, and summarized in Table 14.

The conditions of series [3]: in comparison with Halichondrin B; cited from earlier work.
For series [4], the system named is HSC-2-Luc inoculated into tongue. The series is described as follows: HSC-2 orthotopic transplantation mouse model. It counts as in vivo, nude mice. The conditions noted are these: Compound (1) 0.09 mg/kg.
For series [5] the following is noted: in vitro and in vivo; cited from earlier work.

As usually defined, the IC50 is the point on the concentration scale where inhibition reaches its midpoint. For the molecule `C=C1C[C@@H]2CC[C@@]34CC5O[C@H]6[C@@H](O3)[C@H]3O[C@H](CC[C@@H]3O[C@H]6C5O4)CC(=O)O[C@@H]3[C@@H](C)[C@@H]4O[C@@H]5C[C@]6(C[C@@H]7O[C@]8(C[C@H](C)[C@@H]9O[C@H](CCO)[C@H](O)C[C@@H]9O8)C[C@H](C)[C@@H]7O6)O[C@@H]5C[C@@H]4O[C@H]3C[C@H]3O[C@@H](CC[C@@H]1O2)C[C@@H](C)C3=C` [Compound E-2], the 50% inhibitory concentration (IC50) in series [1] was 0.595 nM; with MES-SA cells it was 0.856 nM; in series [2] it was 0.0805 nM.

Take `C=C1C[C@@H]2CC[C@@]34C[C@@]5(O)O[C@H]6[C@@H](O3)[C@H]3O[C@H](CC[C@@H]3O[C@H]6[C@H]5O4)CC(=O)O[C@@H]3[C@@H](C)[C@@H]4O[C@@H]5C[C@]6(C[C@@H]7O[C@]8(C[C@H](C)[C@@H]9O[C@H]([C@@H](O)C[C@@H](O)CO)C[C@@H]9O8)C[C@H](C)[C@@H]7O6)O[C@@H]5C[C@@H]4O[C@H]3C[C@H]3O[C@@H](CC[C@@H]1O2)C[C@@H](C)C3=C` [Halichondrin C]: the “stability in aqueous solution” value in series [3] was “unstable in aqueous solution in comparison with Halichondrin B”.

In the case of `C=C1C[C@@H]2CC[C@@]34CC5O[C@H]6[C@@H](O3)[C@H]3O[C@H](CC[C@@H]3O[C@H]6C5O4)CC(=O)O[C@@H]3[C@@H](C)[C@@H]4O[C@@H]5C[C@]6(C[C@@H]7O[C@]8(C[C@H](C)[C@@H]9O[C@H](CCOC)[C@H](O)C[C@@H]9O8)C[C@H](C)[C@@H]7O6)O[C@@H]5C[C@@H]4O[C@H]3C[C@H]3O[C@@H](CC[C@@H]1O2)C[C@@H](C)C3=C` [Compound I-2], the IC50 in series [1] came to 0.103 nM; in the series with MES-SA cells it was 0.057 nM; in series [2] it was 0.00624 nM.

Take `C=C1C[C@@H]2CC[C@@]34CC5O[C@H]6[C@@H](O3)[C@H]3O[C@H](CC[C@@H]3O[C@H]6C5O4)CC(=O)O[C@@H]3[C@@H](C)[C@@H]4O[C@@H]5C[C@]6(C[C@@H]7O[C@]8(C[C@H](C)[C@@H]9O[C@H]([C@@H](O)CCO)C[C@@H]9O8)C[C@H](C)[C@@H]7O6)O[C@@H]5C[C@@H]4O[C@H]3C[C@H]3O[C@@H](CC[C@@H]1O2)C[C@@H](C)C3=C` [Compound M-3]: the concentration for half-maximal inhibition (IC50) in series [1] came to 0.0199 nM; in the series on MES-SA cells it was 0.0141 nM; in series [2] it was 0.0101 nM.

For the molecule `C=C1C[C@@H]2CC[C@@]34CC5O[C@H]6[C@@H](O3)[C@H]3O[C@H](CC[C@@H]3O[C@H]6C5O4)CC(=O)O[C@@H]3[C@@H](C)[C@@H]4O[C@@H]5C[C@]6(C[C@@H]7O[C@]8(C[C@H](C)[C@@H]9O[C@H]([C@@H](O)CCN)C[C@@H]9O8)C[C@H](C)[C@@H]7O6)O[C@@H]5C[C@@H]4O[C@H]3C[C@H]3O[C@@H](CC[C@@H]1O2)C[C@@H](C)C3=C` [Compound N-1], the half-inhibitory concentration (IC50) was 1.53 nM in series [1], 2.88 nM with MES-SA cells and 0.08 nM in series [2].

`C=C1C[C@@H]2CC[C@@]34CC5O[C@H]6[C@@H](O3)[C@H]3O[C@H](CC[C@@H]3O[C@H]6C5O4)CC(=O)O[C@@H]3[C@@H](C)[C@@H]4O[C@@H]5C[C@]6(C[C@@H]7O[C@]8(C[C@H](C)[C@@H]9O[C@H]([C@@H](O)C[C@@H](O)CN)C[C@@H]9O8)C[C@H](C)[C@@H]7O6)O[C@@H]5C[C@@H]4O[C@H]3C[C@H]3O[C@@H](CC[C@@H]1O2)C[C@@H](C)C3=C` [Compound K-2]: the IC50 is 0.461 nM in series [1], 0.341 nM with MES-SA cells and 0.07 nM in series [2].

As to `N.N.[Cl][Pt][Cl]` [Cisplatin, cisplatin, reference compound], the “ILS (%)” value was determined as 0% in series [4] (single agent, Q7Dx3: cetuximab 5 mg/kg, cisplatin 5 mg/kg) and 150% in series [4] (with cetuximab 5 mg/kg, Q7Dx3: cisplatin 5 mg/kg).

In the case of `C=C1C[C@@H]2CC[C@@]34CC5O[C@H]6[C@@H](O3)[C@H]3O[C@H](CC[C@@H]3O[C@H]6C5O4)CC(=O)O[C@@H]3[C@@H](C)[C@@H]4O[C@@H]5C[C@]6(C[C@@H]7O[C@]8(C[C@H](C)[C@@H]9O[C@H](CO)[C@H](O)C[C@@H]9O8)C[C@H](C)[C@@H]7O6)O[C@@H]5C[C@@H]4O[C@H]3C[C@H]3O[C@@H](CC[C@@H]1O2)C[C@@H](C)C3=C` [Compound D-6], the concentration for half-maximal inhibition (IC50) was found to be 0.022 nM in series [1], 0.0138 nM in the series with MES-SA cells and 0.0104 nM in series [2].

On to `C=C1C[C@@H]2CC[C@@]34C[C@@]5(O)O[C@H]6[C@@H](O3)[C@H]3O[C@H](CC[C@@H]3O[C@H]6[C@H]5O4)CC(=O)O[C@@H]3[C@@H](C)[C@@H]4O[C@@H]5C[C@]6(C[C@@H]7O[C@]8(C[C@H](C)[C@@H]9O[C@H]([C@@H](O)C[C@@H](O)CN)C[C@@H]9O8)C[C@H](C)[C@@H]7O6)O[C@@H]5C[C@@H]4O[C@H]3C[C@H]3O[C@@H](CC[C@@H]1O2)C[C@@H](C)C3=C` [Compound L-6], for which the IC50 amounted to 6.81 nM in series [1], 2.79 nM with MES-SA cells and 0.269 nM in series [2].

Take `C=C1C[C@@H]2CC[C@@]34C[C@]5(O)O[C@H]6[C@@H](O3)[C@H]3O[C@H](CC[C@@H]3O[C@H]6C5O4)CC(=O)O[C@@H]3[C@@H](C)[C@@H]4O[C@@H]5C[C@]6(C[C@@H]7O[C@]8(C[C@H](C)[C@@H]9O[C@H](CCO)[C@H](O)C[C@@H]9O8)C[C@H](C)[C@@H]7O6)O[C@@H]5C[C@@H]4O[C@H]3C[C@H]3O[C@@H](CC[C@@H]1O2)C[C@@H](C)C3=C` [Compound J-1]: the IC50 in series [1] turned out to be 0.00992 nM; with MES-SA cells, 0.0102 nM; in series [2] it was 0.00308 nM.

As for `C=C1C[C@@H]2CC[C@@]34C[C@H]5O[C@H]6[C@@H](O3)[C@H]3O[C@H](CC[C@@H]3O[C@H]6[C@H]5O4)CC(=O)O[C@@H]3[C@@H](C)[C@@H]4O[C@@H]5C[C@]6(CC7O[C@@]8(C[C@H](C)C7O6)C[C@H](C)[C@@H]6O[C@H](CC(=O)O)[C@H](O)C[C@@H]6O8)O[C@@H]5CC4O[C@H]3C[C@H]3O[C@@H](CC[C@@H]1O2)C[C@@H](C)C3=C` (stereo partly shown) [Norhalichondrin B], the “activity relative to Halichondrin B” value in series [5] is listed as “much weaker than Halichondrin B”.

In the case of `C=C1C[C@@H]2CC[C@@]34C[C@H]5O[C@H]6[C@@H](O3)[C@H]3O[C@H](CC[C@@H]3O[C@H]6[C@H]5O4)CC(=O)O[C@@H]3[C@@H](C)[C@@H]4O[C@@H]5C[C@]6(C[C@@H]7O[C@]8(C[C@H](C)[C@@H]9O[C@H](CCN)[C@H](O)C[C@@H]9O8)C[C@H](C)[C@@H]7O6)O[C@@H]5C[C@@H]4O[C@H]3C[C@H]3O[C@@H](CC[C@@H]1O2)C[C@@H](C)C3=C` [Compound G-4], the IC50 worked out at 0.136 nM in series [1], 0.326 nM with MES-SA cells and 0.0335 nM in series [2].
